Data from US8435990B2, “Dihydropyrimidone amides as P2X7 modulators” (Roche Palo Alto LLC, priority 2009, dated 2013).

Target: T1, human P2X7 (Homo sapiens, UniProt Q99572)
T1 construct: 1321N1 cells stably expressing the full length human P2X7 gene (1321N1-hP2X7)
T1 sequence (Q99572 1-595): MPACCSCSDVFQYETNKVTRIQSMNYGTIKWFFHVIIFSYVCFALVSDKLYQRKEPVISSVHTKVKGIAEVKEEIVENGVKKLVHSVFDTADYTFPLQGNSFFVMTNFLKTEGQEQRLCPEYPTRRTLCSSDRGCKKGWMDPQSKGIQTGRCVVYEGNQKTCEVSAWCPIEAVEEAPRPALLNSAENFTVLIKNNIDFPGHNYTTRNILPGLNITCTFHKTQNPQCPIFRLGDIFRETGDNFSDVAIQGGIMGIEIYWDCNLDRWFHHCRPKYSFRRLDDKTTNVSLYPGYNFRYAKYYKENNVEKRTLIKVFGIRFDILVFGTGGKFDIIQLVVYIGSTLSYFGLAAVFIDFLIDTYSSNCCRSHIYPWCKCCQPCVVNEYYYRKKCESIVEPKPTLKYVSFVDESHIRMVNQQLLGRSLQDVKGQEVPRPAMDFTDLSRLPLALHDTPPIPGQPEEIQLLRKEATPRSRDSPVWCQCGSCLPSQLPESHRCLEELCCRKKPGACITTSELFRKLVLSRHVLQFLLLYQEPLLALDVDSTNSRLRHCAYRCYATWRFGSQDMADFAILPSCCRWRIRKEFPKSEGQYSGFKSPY
Assay: P2X7 modulator pIC50 of Table 1 (assay not given; Intracellular Calcium Flux (FLIPR) Assay assumed)
Type: cell-based
Description: Intracellular Calcium Flux (FLIPR) Assay
Stock solutions of compounds were prepared from powders as a 10 mM DMSO stock solution. These solutions were stored at RT during the two week period of these experiments to prevent freeze-thaw of the DMSO stocks. The DMSO stocks were added to the appropriate assay buffer at a concentration of 10 μM, and then diluted serially to the final concentrations that were tested. No observable precipitate was formed at any time during this process. The aqueous solutions of compounds as well as ATP (Sigma A7699) and BzATP (Sigma B6396) were prepared fresh for each day of experiment.
1321N1 cells stably expressing the full length human P2X7 gene (1321N1-hP2X7) and HEK293 cells stably expressing the full length rat P2X7 gene (HEK293-rP2X7) were obtained from the Roche Cell Culture Facility. 1321N1-hP2X7 cells were grown in Dulbecco's Modified Eagle's Medium (DMEM) high glucose supplemented with 10% FBS and 250 μg/mL G418. HEK293-rP2X7 cells were grown in DMEM/F-12 supplemented with 10% FBS, 1 mM CaCl2, 2 mM MgCl2, 2 mM L-Glutamine and 500 μg/ml G418. Cells were split such that they never became >70% confluent.
On the day prior to the experiment, 1321N1-hP2X7 or HEK293-rP2X7 cells were released into suspension with calcium-free PBS+Versene and washed by centrifugation with calcium-free PBS to remove the Versene. Cells were resuspended in growth medium at a density of 2.5×10^5 cells/mL and seeded into black walled, clear bottom 96 well plates (50,000 cells/well) approximately 18 hr prior to intracellular calcium flux experiments.
On the day of the experiment, plates were washed with FLIPR buffer (calcium- and magnesium-free Hank's Balanced Salt Solution (HBSS) supplemented with 10 mM Hepes, 2.5 mM probenecid and 2 mM calcium chloride) using a BIO-TEK 96 channel plate washer and incubated with […] fluo-3 dye at 37° C. for one hr. The dye was then removed by plate washing and the cells were allowed to equilibrate for 20 min at room temperature with antagonist or vehicle (FLIPR buffer). Agonist (100 μM BzATP final concentration for hP2X7; 5μM BzATP final concentration or rP2X7) was added online with the FLIPR and fluorescence measurements made at 1 sec intervals for 60 sec followed by 3 sec intervals for a further 4 min (5 min total). A final addition of 5 μM ionomycin was made and the maximal BzATP-evoked fluorescence normalized to the maximal ionomycin-evoked fluorescence.

Row | Structure (SMILES) | IC50
1 | Cc1cc2cn[nH]c2cc1NC(=O)C1=CN(C)C(=O)N[C@H]1c1ccc(F)cc1 [Compound 47, (S)-4-(4-Fluoro-phenyl)-1-methyl-2-oxo-1,2,3,4-tetrahydro-pyrimidine-5-carboxylic acid (5-methyl-1H-indazol-6-yl)-amide] | 18.2 nM
2 | Cc1ccc(-n2ccc(=O)[nH]c2=O)cc1NC(=O)C1=CN(C)C(=O)N[C@H]1c1ccc(F)cc1 [Compound 48, (S)-4-(4-Fluoro-phenyl)-1-methyl-2-oxo-1,2,3,4-tetrahydro-pyrimidine-5-carboxylic acid [5-(2,4-dioxo-3,4-dihydro-2H-pyrimidin-1-yl)-2-methyl-phenyl]-amide] | 26 nM
3 | Cc1ccc(-n2ncccc2=O)cc1NC(=O)C1=CN(C)C(=O)N[C@H]1c1cccc(F)c1 [Compound 49, (S)-4-(3-Fluoro-phenyl)-1-methyl-2-oxo-1,2,3,4-tetrahydro-pyrimidine-5-carboxylic acid [2-methyl-5-(6-oxo-6H-pyridazin-1-yl)-phenyl]-amide] | 105 nM
4 | Cc1ccc(-n2cccc(C)c2=O)cc1NC(=O)C1=CN(C)C(=O)N[C@H]1c1ccc(F)cc1 [Compound 50, (S)-4-(4-Fluoro-phenyl)-1-methyl-2-oxo-1,2,3,4-tetrahydro-pyrimidine-5-carboxylic acid [2-methyl-5-(3-methyl-2-oxo-2H-pyridin-1-yl)-phenyl]-amide] | 55 nM
5 | CN1C=C(C(=O)Nc2cccc3c(=O)n(C)ccc23)[C@H](c2ccc(F)cc2)NC1=O [Compound 51, (S)-4-(4-Fluoro-phenyl)-1-methyl-2-oxo-1,2,3,4-tetrahydro-pyrimidine-5-carboxylic acid (2-methyl-1-oxo-1,2-dihydro-isoquinolin-5-yl)-amide] | 63.1 nM
6 | Cc1ccc(-c2ccnn(C)c2=O)cc1NC(=O)C1=CN(C)C(=O)NC1C1CCC(F)(F)CC1 (stereo not drawn) [Compound 52, 4-(4,4-Difluoro-cyclohexyl)-1-methyl-2-oxo-1,2,3,4-tetrahydro-pyrimidine-5-carboxylic acid [2-methyl-5-(2-methyl-3-oxo-2,3-dihydro-pyridazin-4-yl)-phenyl]-amide] | 339 nM
7 | CN1C=C(C(=O)Nc2cccc3c(=O)n(CCO)ccc23)[C@H](c2ccc(F)cc2)NC1=O [Compound 53, (S)-4-(4-Fluoro-phenyl)-1-methyl-2-oxo-1,2,3,4-tetrahydro-pyrimidine-5-carboxylic acid [2-(2-hydroxy-ethyl)-1-oxo-1,2-dihydro-isoquinolin-5-yl]-amide] | 53.1 nM
8 | Cc1ccc(-n2ccccc2=O)cc1NC(=O)C1=CN(C)C(=O)N[C@H]1c1ccc(F)cc1 [Compound 54, (S)-4-(4-Fluoro-phenyl)-1-methyl-2-oxo-1,2,3,4-tetrahydro-pyrimidine-5-carboxylic acid [2-methyl-5-(2-oxo-2H-pyridin-1-yl)-phenyl]-amide] | 21.6 nM
9 | COc1ccc(-c2ccc(C)c(NC(=O)C3=CN(C)C(=O)N[C@H]3c3ccc(F)cc3)c2)nn1 [Compound 55, (S)-4-(4-Fluoro-phenyl)-1-methyl-2-oxo-1,2,3,4-tetrahydro-pyrimidine-5-carboxylic acid [5-(6-methoxy-pyridazin-3-yl)-2-methyl-phenyl]-amide] | 11 nM
10 | Cc1ccc(-n2c(=O)cc[nH]c2=O)cc1NC(=O)C1=CN(C)C(=O)N[C@H]1c1ccc(F)cc1 [Compound 56, (S)-4-(4-Fluoro-phenyl)-1-methyl-2-oxo-1,2,3,4-tetrahydro-pyrimidine-5-carboxylic acid [5-(2,6-dioxo-3,6-dihydro-2H-pyrimidin-1-yl)-2-methyl-phenyl]-amide] | 3160 nM
11 | Cc1ccc(-c2ccnn(C)c2=O)cc1NC(=O)C1=CN(C)C(=O)N[C@H]1c1ccccc1 [Compound 57, (S)-1-Methyl-2-oxo-4-phenyl-1,2,3,4-tetrahydro-pyrimidine-5-carboxylic acid [2-methyl-5-(2-methyl-3-oxo-2,3-dihydro-pyridazin-4-yl)-phenyl]-amide] | 3470 nM

Now from value to molecule:

Row | IC50 | Structure (SMILES)
12 | 40.3 nM | Cc1cc2cnn(CC(=O)N(C)C)c2cc1NC(=O)C1=CN(C)C(=O)N[C@H]1c1ccc(F)cc1 [Compound 58]
13 | 16.8 nM | Cc1ccc(-c2ccc(=O)n(CCO)n2)cc1NC(=O)C1=CN(C)C(=O)N[C@H]1c1ccc(F)cc1 [Compound 59, (S)-4-(4-Fluoro-phenyl)-1-methyl-2-oxo-1,2,3,4-tetrahydro-pyrimidine-5-carboxylic acid {5-[1-(2-hydroxy-ethyl)-6-oxo-1,6-dihydro-pyridazin-3-yl]-2-methyl-phenyl}-amide]
14 | 5.5 nM | Cc1ccc(-c2cccn(C)c2=O)cc1NC(=O)C1=CN(C)C(=O)N[C@H]1c1ccc(F)cc1 [Compound 60, (S)-4-(4-Fluoro-phenyl)-1-methyl-2-oxo-1,2,3,4-tetrahydro-pyrimidine-5-carboxylic acid [2-methyl-5-(1-methyl-2-oxo-1,2-dihydro-pyridin-3-yl)-phenyl]-amide]
15 | 40.7 nM | COC[C@H](O)Cn1nc(-c2ccc(C)c(NC(=O)C3=CN(C)C(=O)N[C@H]3c3ccc(F)cc3)c2)ccc1=O [Compound 61, (S)-4-(4-Fluoro-phenyl)-1-methyl-2-oxo-1,2,3,4-tetrahydro-pyrimidine-5-carboxylic acid {5-[1-((R)-2-hydroxy-3-methoxy-propyl)-6-oxo-1,6-dihydro-pyridazin-3-yl]-2-methyl-phenyl}-amide]
16 | 15 nM | Cc1cc(Cl)c(OCCO)cc1NC(=O)C1=CN(C)C(=O)NC1c1ccccc1 (stereo not drawn) [Compound 62, 1-Methyl-2-oxo-4-phenyl-1,2,3,4-tetrahydro-pyrimidine-5-carboxylic acid [4-chloro-5-(2-hydroxy-ethoxy)-2-methyl-phenyl]-amide]
17 | 51.9 nM | Cc1cc(Cl)c(-n2ncccc2=O)cc1NC(=O)C1=CN(C)C(=O)N[C@H]1c1ccc(F)cc1 [Compound 63, (S)-4-(4-Fluoro-phenyl)-1-methyl-2-oxo-1,2,3,4-tetrahydro-pyrimidine-5-carboxylic acid [4-chloro-2-methyl-5-(6-oxo-6H-pyridazin-1-yl)-phenyl]-amide]
18 | 16.6 nM | CCn1c(=O)cnn(-c2ccc(C)c(NC(=O)C3=CN(C)C(=O)N[C@H]3c3ccc(F)cc3)c2)c1=O [Compound 64, (S)-4-(4-Fluoro-phenyl)-1-methyl-2-oxo-1,2,3,4-tetrahydro-pyrimidine-5-carboxylic acid [5-(4-ethyl-3,5-dioxo-4,5-dihydro-3H-[1,2,4]triazin-2-yl)-2-methyl-phenyl]-amide]
19 | 15.5 nM | Cc1ccc2c(C)c(NC(=O)C3=CN(C)C(=O)N[C@H]3c3ccc(F)cc3)ccc2n1 [Compound 65, (S)-4-(4-Fluoro-phenyl)-1-methyl-2-oxo-1,2,3,4-tetrahydro-pyrimidine-5-carboxylic acid (2,5-dimethyl-quinolin-6-yl)-amide]
20 | 19.5 nM | Cc1cc(Cl)c(-n2cccc(C)c2=O)cc1NC(=O)C1=CN(C)C(=O)N[C@H]1c1ccc(F)cc1 [Compound 66, (S)-4-(4-Fluoro-phenyl)-1-methyl-2-oxo-1,2,3,4-tetrahydro-pyrimidine-5-carboxylic acid [4-chloro-2-methyl-5-(3-methyl-2-oxo-2H-pyridin-1-yl)-phenyl]-amide]
21 | 37.6 nM | Cc1ccc(-n2ccc(=O)n(C)c2=O)cc1NC(=O)C1=CN(C)C(=O)N[C@H]1c1ccc(F)cc1 [Compound 68, (S)-4-(4-Fluoro-phenyl)-1-methyl-2-oxo-1,2,3,4-tetrahydro-pyrimidine-5-carboxylic acid [2-methyl-5-(3-methyl-2,4-dioxo-3,4-dihydro-2H-pyrimidin-1-yl)-phenyl]-amide]
